Experimental findings from the SangsterLogP compilation are described below.

The nature of the data set: method code SF-GLC,AS, from DOI: 10.1021/jf60192a013, PMID: 4840568.

For `COP(=O)(NC(C)(C)C)SC` (configuration not stated), the lipophilicity (logP) (in general, a log measure of how a compound divides between an organic and an aqueous phase) was determined as 0.96. The compound `CCCCNP(=O)(OC)SC` (configuration not stated) displayed a logP of 0.94. Under `CCOP(N)(=O)SCC` (configuration not stated) stands 0.15. Under `CCNP(=O)(OC)SC` (configuration not stated) stands 0.07.

As to `COP(N)(=O)SC` (configuration not stated), the logP was -0.66. Under `CCCNP(=O)(OC)SC` (configuration not stated) stands 0.65. Next, `COP(=O)(NCC(C)C)SC` (configuration not stated): 0.97; `CCCOP(N)(=O)SCCC` (configuration not stated): 1.23; `CCCCCCNP(=O)(OC)SC` (configuration not stated): 1.11. Under `CCC(C)NP(=O)(OC)SC` (configuration not stated) stands 0.95. Compound `CNP(=O)(OC)SC` (configuration not stated) returned a logP of -0.07. Under `CCCCCCCCNP(=O)(OC)SC` (configuration not stated) stands 1.51.
